Literature values as cited in patent US20250221949A1, “ANTISEPTIC, ANTISEBORRHEIC, EXFOLIATING COMPOSITION TO REMOVE OR PREVENT ACNE” (Excalibur Pharmaceuticals, Inc., priority 2012, published 2025).

Test system: Candida albicans, some Trichomonas, Staphylococcus aureus; Escherichia coli, Salmonella typhi, S. paratyphi, Shigella dysenterica and Vibro cholera species
Conditions: background statement

In the case of `C=CCS[S+]([O-])CC=C` (stereo not shown) [DDO, diallyl disulphide oxide], the “in vitro activity against microorganisms (in words)” value is given as “has in vitro activity”.
